Laboratory results reported in ChEMBL document CHEMBL3885861, “Open TG-GATES”.

Organism: Rattus norvegicus
Experiment: Open TG-GATES - Regimen: Single
Format: toxicity, organism-based, Sprague-Dawley
Set-up: regimen Single, gender Male, age 6 weeks
Settings: in vivo, po, 300 mg/kg, route gavage, dose level High; for APTT / Bas / Eos / Fbg / Hb / Ht / Lym / MCH / MCHC / MCV / Mono / Neu / PT / Plat / RBC / Ret / WBC: tissue Blood; for KIDNEY_L / KIDNEY_R / KIDNEY_TOTAL: tissue Kidney; for LIVER: tissue Liver; for A/G / ALP / ALT / AST / BUN / CRE / Ca / Cl / DBIL / GLC / IP / K / LDH / Na / PL / RALB / TBIL / TC / TG / TP / gamma-GTP: tissue Plasma

In the case of `Brc1ccccc1` [BROMOBENZENE], the TERMINAL_BW (3 h) is reported as 190.3 g, the APTT (3 h) is reported as 15.8 s and the Bas (3 h) is reported as 0%. It also gave an Eos (3 h) of 0.8%, a Fbg (3 h) of 289.8 mg/dL and a Hb (3 h) of 14.1 g/dL. It also gave a Ht (3 h) of 41.4%, a Lym (3 h) of 76.6% and an MCH (3 h) of 21.7 pg. It also gave an MCHC (3 h) of 33.9%, an MCV (3 h) of 64 fL and a Mono (3 h) of 3.2%. It also gave a Neu (3 h) of 19.2%, a PT (3 h) of 12 s and a Plat (3 h) of 115.3 x10_4/uL. For the same compound, the RBC (3 h) was 648.4 x10_4/ul, the Ret (3 h) was 9.4% and the WBC (3 h) was 67.3 x10_2/uL. The KIDNEY_L (3 h) was 0.8 g, the KIDNEY_R (3 h) was 0.8 g and the KIDNEY_TOTAL (3 h) was 1.7 g. The LIVER (3 h) was 7.6 g, the A/G (3 h) was 0.9 and the ALP (3 h) was 1696 IU/L. The ALT (3 h) was 48.2 IU/L, the AST (3 h) was 81.6 IU/L and the BUN (3 h) was 8 mg/dL. It also gave a CRE (3 h) of 0.1 mg/dL, a Ca (3 h) of 11 mg/dL and a Cl (3 h) of 105.2 meq/L. For the same compound, the DBIL (3 h) was 0.01 mg/dL, the GLC (3 h) was 191.6 mg/dL and the IP (3 h) was 10.9 mg/dL. The K (3 h) was 3.6 meq/L, the LDH (3 h) was 78.2 IU/L and the Na (3 h) was 141.6 meq/L. The PL (3 h) was 152.2 mg/dL, the RALB (3 h) was 2.7 g/dL and the TBIL (3 h) was 0.044 mg/dL. It also gave a TC (3 h) of 82.8 mg/dL, a TG (3 h) of 55.8 mg/dL and a TP (3 h) of 5.7 g/dL. For the same compound, the gamma-GTP (3 h) was 1.4 IU/L, the TERMINAL_BW (6 h) was 192 g and the APTT (6 h) was 15.8 s. For the same compound, the Bas (6 h) was 0%, the Eos (6 h) was 0.6% and the Fbg (6 h) was 293 mg/dL. For the same compound, the Hb (6 h) was 13.9 g/dL, the Ht (6 h) was 41.8% and the Lym (6 h) was 73%. The MCH (6 h) was 21 pg, the MCHC (6 h) was 33.3% and the MCV (6 h) was 63 fL. The Mono (6 h) was 2.2%, the Neu (6 h) was 23.8% and the PT (6 h) was 12.3 s. It also gave a Plat (6 h) of 107.3 x10_4/uL, an RBC (6 h) of 663.8 x10_4/ul and a Ret (6 h) of 9.1%. For the same compound, the WBC (6 h) was 56.8 x10_2/uL, the KIDNEY_L (6 h) was 0.8 g and the KIDNEY_R (6 h) was 0.8 g. The KIDNEY_TOTAL (6 h) was 1.6 g, the LIVER (6 h) was 7.4 g and the A/G (6 h) was 0.9. The ALP (6 h) was 1585.6 IU/L, the ALT (6 h) was 40.6 IU/L and the AST (6 h) was 72.2 IU/L. The BUN (6 h) was 9.2 mg/dL, the CRE (6 h) was 0.1 mg/dL and the Ca (6 h) was 10.9 mg/dL. It also gave a Cl (6 h) of 103.4 meq/L, a DBIL (6 h) of 0.008 mg/dL and a GLC (6 h) of 207.6 mg/dL. It also gave an IP (6 h) of 11.1 mg/dL, a K (6 h) of 3.8 meq/L and an LDH (6 h) of 80 IU/L. For the same compound, the Na (6 h) was 140.6 meq/L, the PL (6 h) was 156.8 mg/dL and the RALB (6 h) was 2.7 g/dL. The TBIL (6 h) was 0.04 mg/dL, the TC (6 h) was 93.2 mg/dL and the TG (6 h) was 29.4 mg/dL. The TP (6 h) was 5.7 g/dL, the gamma-GTP (6 h) was 1.4 IU/L and the TERMINAL_BW (9 h) was 190.5 g. The APTT (9 h) was 16.2 s, the Bas (9 h) was 0% and the Eos (9 h) was 0.6%. The Fbg (9 h) was 274.4 mg/dL, the Hb (9 h) was 14.2 g/dL and the Ht (9 h) was 41.9%. For the same compound, the Lym (9 h) was 79%, the MCH (9 h) was 21.5 pg and the MCHC (9 h) was 33.9%. The MCV (9 h) was 63.4 fL, the Mono (9 h) was 2.4% and the Neu (9 h) was 17.6%. The PT (9 h) was 12.2 s, the Plat (9 h) was 111.6 x10_4/uL and the RBC (9 h) was 660.8 x10_4/ul. The Ret (9 h) was 8.9%, the WBC (9 h) was 67.7 x10_2/uL and the KIDNEY_L (9 h) was 0.8 g. The KIDNEY_R (9 h) was 0.8 g, the KIDNEY_TOTAL (9 h) was 1.6 g and the LIVER (9 h) was 6.5 g. For the same compound, the A/G (9 h) was 0.9, the ALP (9 h) was 1518.8 IU/L and the ALT (9 h) was 40.8 IU/L. It also gave an AST (9 h) of 75.6 IU/L, a BUN (9 h) of 12 mg/dL and a CRE (9 h) of 0.2 mg/dL. It also gave a Ca (9 h) of 10.6 mg/dL, a Cl (9 h) of 103.6 meq/L and a DBIL (9 h) of 0.008 mg/dL. It also gave a GLC (9 h) of 184.8 mg/dL, an IP (9 h) of 11 mg/dL and a K (9 h) of 3.7 meq/L. The LDH (9 h) was 95.6 IU/L, the Na (9 h) was 140.6 meq/L and the PL (9 h) was 141.4 mg/dL. It also gave an RALB (9 h) of 2.6 g/dL, a TBIL (9 h) of 0.052 mg/dL and a TC (9 h) of 86.6 mg/dL. It also gave a TG (9 h) of 23.8 mg/dL, a TP (9 h) of 5.6 g/dL and a gamma-GTP (9 h) of 1.8 IU/L. The TERMINAL_BW (24 h) was 185.8 g, the APTT (24 h) was 18.7 s and the Bas (24 h) was 0%. The Eos (24 h) was 0.4%, the Fbg (24 h) was 204.8 mg/dL and the Hb (24 h) was 13.9 g/dL. For the same compound, the Ht (24 h) was 40.9%, the Lym (24 h) was 71.6% and the MCH (24 h) was 21.5 pg. The MCHC (24 h) was 34%, the MCV (24 h) was 63.2 fL and the Mono (24 h) was 1.8%. It also gave a Neu (24 h) of 25.8%, a PT (24 h) of 15.8 s and a Plat (24 h) of 111.5 x10_4/uL. For the same compound, the RBC (24 h) was 647.2 x10_4/ul, the Ret (24 h) was 7.3% and the WBC (24 h) was 73.2 x10_2/uL. It also gave a KIDNEY_L (24 h) of 0.8 g, a KIDNEY_R (24 h) of 0.8 g and a KIDNEY_TOTAL (24 h) of 1.7 g. It also gave an LIVER (24 h) of 8.6 g, an A/G (24 h) of 0.9 and an ALP (24 h) of 2477 IU/L. The ALT (24 h) was 113.6 IU/L, the AST (24 h) was 481 IU/L and the BUN (24 h) was 14.6 mg/dL. For the same compound, the CRE (24 h) was 0.2 mg/dL, the Ca (24 h) was 10.2 mg/dL and the Cl (24 h) was 106.8 meq/L. The DBIL (24 h) was 0.024 mg/dL, the GLC (24 h) was 166.8 mg/dL and the IP (24 h) was 8.3 mg/dL. For the same compound, the K (24 h) was 4.1 meq/L, the LDH (24 h) was 784.6 IU/L and the Na (24 h) was 142 meq/L. It also gave a PL (24 h) of 130.8 mg/dL, an RALB (24 h) of 2.6 g/dL and a TBIL (24 h) of 0.074 mg/dL. The TC (24 h) was 85.6 mg/dL, the TG (24 h) was 67.4 mg/dL and the TP (24 h) was 5.5 g/dL. For the same compound, the gamma-GTP (24 h) was 1.4 IU/L.
